CC(C)NCC1(O)CCN(c2c(F)cc3c(=O)c(C(=O)O)cn(C4CC4)c3c2F)C1 (stereo not given) showed a melting point of 213 to 214 °C. CNC(=O)N(O)C(C)c1cc2cc(Cl)ccc2[nH]1 (stereo not given) showed a melting point of 159 to 160 °C. In the case of O=C(CCCc1ccccc1)N[C@H](Cc1cccc(C(F)(F)F)c1)[C@@H](O)c1ccc(F)cc1 (racemic), the melting point is reported as 110 to 111 °C. In the case of O=C(CC(F)(F)F)NC[C@H]1CN(c2ccc3c(c2)CCCc2cnoc2-3)C(=O)O1, the melting point is reported as 150 to 186 °C. CCc1cc(OC)cc2nc(-c3cccnc3N3CC[C@H](N(C)C)C3)oc(=O)c12 showed a melting point of 148 to 155 °C. With COc1ccc2cc(C3=CCC4(CC3)CCN(C)CC4)ccc2c1 the melting point was 147 to 150 °C. Work on COC(=O)c1cc(Cl)cnc1OC yielded a melting point of 79 to 81 °C. In the case of COCOc1c(NC(=O)Nc2ccccc2)cc(OC)cc1C(C)(C)C, the melting point is reported as 121 to 123 °C. In the case of CCN(C(=O)c1cc(Cl)c(NC(=O)C(F)(F)F)cc1OC)C1CCN(Cc2ccccc2)CC1, the melting point is reported as 198 to 200 °C. Compound CC(C)(C)OC(=O)CC1CCNC(=O)c2ccccc21 (stereo not given) has a melting point of 126 to 127 °C. With CCOCCC(=O)C=P(c1ccccc1)(c1ccccc1)c1ccccc1 the melting point was 63 to 65 °C. With CCCCCCCN(C(=O)Nc1ccccc1CCc1cc(C(C)(C)C)c(O)c(C(C)(C)C)c1)C1CCCCCC1 the melting point was 70 to 72 °C. For COc1ccc(C(C)C)cc1-c1cc(-c2nnnn2C2CCN(C(=O)OC(C)(C)C)C2)c(OCc2ccccc2)cc1OCc1ccccc1 (stereo not given), the melting point was 73 to 77 °C. In the case of Fc1cc(C(c2cccc(Cl)c2)n2cncn2)c2ccccc2n1 (stereo not given), the melting point is reported as 140 °C. With CCOC(=O)c1c(N2CCN(C(=O)c3cccs3)CC2)c2cc(Cl)cnc2n(Cc2cccc(F)c2)c1=O the melting point was 186 °C. COc1cc(N2C(=O)C3(CC3)[C@@H](O)[C@@H]2C)ccc1C#N showed a melting point of 167 to 169 °C. CCOC(=O)c1c(CCl)nc2cc(OC)c(OC)cc2c1-c1ccc(Cl)c(Cl)c1 showed a melting point of 159 to 160 °C. In the case of CCC1=NNC(C)=C(C(=O)OC(C)C)C1c1cccc([N+](=O)[O-])c1 (stereo not given), the melting point is reported as 108 °C. CON=C1C(c2ccccc2)=C(c2ccc(S(C)(=O)=O)cc2)C1(C)C showed a melting point of 146 to 147 °C. In the case of CC1=CSC(n2ccc(OCc3ccc(C(F)(F)F)o3)cc2=O)N1C(=O)O (stereo not given), the melting point is reported as 261 to 263 °C. With Cc1cccc(-c2ccc(C(=O)Nc3ccc4cc(CN5CCCC5)cnc4c3C)cc2)c1 the melting point was 151 to 152 °C. CCN(CC)Cc1nnc(-c2ncn3c2CN(C)C(=O)c2ccccc2-3)o1 showed a melting point of 235 to 238 °C. Cc1noc([C@@]2(C)CC[C@@H](NCC(=O)N3C[C@@H](F)C[C@H]3C#N)C2(C)C)n1 gave a melting point of 137 to 141 °C. c1ccc(-c2nnc3c4ccccc4c(N4CCCC4)nn23)cc1 gave a melting point of 208 °C. For CC(=O)NC[C@H]1CN(c2ccc3c(c2)CC(C)N3CCF)C(=O)O1 (stereo not given in full), the melting point was 127 to 130 °C. In the case of COc1ccc(F)cc1C(=O)NC1COc2cc(OC)c(S(N)(=O)=O)cc2C1 (stereo not given), the melting point is reported as 209 to 210 °C. In the case of O=C(NC1=NCCCC1)Nc1ccccc1, the melting point is reported as 153 to 154 °C. For O=C=Nc1ccc(OCCOc2ccc(N=C=O)cc2)cc1, the melting point was 95 to 97 °C. For CCN1CC=C(CC(=O)NC2(c3ccc(C(F)(F)F)cc3)C(=O)Nc3cc(Cl)cc(Cl)c32)CC1 (single isomer, unassigned; (+)), the melting point was 155 to 156 °C. In the case of CCCCc1nc(Cl)c(C=O)n1Cc1cccc2c1ncn2-c1ccccc1C#N, the melting point is reported as 117 to 135 °C. In the case of CCCN1CCN(c2cc(-c3ccc(F)cc3F)c3c(n2)CCCCCC3)CC1, the melting point is reported as 108 to 109 °C. CCOC(=O)c1cc2c(cn1)[nH]c1ccc([N+](=O)[O-])cc12 gave a melting point of 320 to 325 °C. CCOC(=O)C(NC(=O)NN1CC(=O)NC1=O)c1cccs1 (stereo not given) showed a melting point of 151 to 155 °C. Nc1ccccc1C1=NN(c2ccc(Cl)cc2)C(=O)C1 gave a melting point of 199 to 201 °C. CC(=O)N(c1ccc(O)cc1)c1ccc2cc(O)ccc2c1 gave a melting point of 255 °C. In the case of CC(=O)N1CCN(c2ccc(Nc3nccc(-c4sc(-c5cccnc5)nc4C)n3)cc2)CC1, the melting point is reported as 123 to 125 °C. OCC(F)(F)c1ccccn1 showed a melting point of 58 to 60 °C. O=C(Nc1cccc(CO)c1)NC1N=C(c2ccccc2F)c2ccccc2N(CC(=O)N2CC3CCC(CC3)C2)C1=O (racemic) showed a melting point of 143 to 161 °C. O=C(c1ccccc1)c1ccc([N+](=O)[O-])c(C(=O)NCc2ccccc2)c1 showed a melting point of 167 °C. In the case of Nc1nc(Cl)c(C2=NCCN2)c(Cl)n1, the melting point is reported as 197 to 198 °C. Compound CC1CCC(=O)N1c1ccnc(NC(=O)NCc2ccccn2)c1 (stereo not given) has a melting point of 155 to 160 °C. Work on O=C1c2ccccc2C(=O)N1Nc1ccc(/C=C/C(c2cc(Cl)c(Cl)c(Cl)c2)C(F)(F)F)cc1 (stereo not given) yielded a melting point of 187 to 189 °C. With CCC1C(=O)Nc2ccc(Br)cc21 (stereo not given) the melting point was 118 to 120 °C. In the case of O=C(Nc1ccccc1)c1ccccc1Cl, the melting point is reported as 96.4 to 98.3 °C. In the case of CNC(=O)CCC(O)c1ccccc1 (stereo not given), the melting point is reported as 67 to 69 °C. Work on Ic1cccc(-c2nnc(-c3ccc4ccccc4c3)o2)c1 yielded a melting point of 156 to 158 °C. Work on Cc1cc(C(=O)O)c(NC(=O)Nc2ccc(Oc3ccccc3)cc2)s1 yielded a melting point of 213 to 215 °C. Work on O=C1c2nccnc2C(O)N1c1ccc(Cl)cn1 (stereo not given) yielded a melting point of 236 °C. For Cc1oc2c(NC(=O)c3c(C(=O)OC(C)C)cccc3[N+](=O)[O-])cccc2c1C(C)(C)O, the melting point was 118 to 120 °C. For CC1(C)C(=O)N(c2ccc(C#N)c(C(F)(F)F)c2)C(=O)N1CCCO, the melting point was 131 to 132 °C. Compound Cn1c(C(=O)N[C@H]2CCCC[C@H]2C(=O)N[C@H](C#N)C2CC2)cc2ccccc21 has a melting point of 242 to 246 °C. With COC(=O)C(NS(=O)(=O)c1ccc(-c2ccc(NC(=O)c3oc4cccc(CO[Si](C)(C)C(C)(C)C)c4c3C)cc2)cc1)C(C)C (stereo not given) the melting point was 204 to 206 °C. Work on COc1ccc(C)cc1NC(=O)Nc1ccc(C2=CCN(C(=O)Nc3ccc(OCC(O)CO)cc3Cl)CC2)cc1 (stereo not given) yielded a melting point of 125 to 128 °C. For CCC1(c2ccc(Cl)cc2)OCc2c1cnc(CN(C)C)c2O (stereo not given), the melting point was 151 °C. Compound O=C(O)C1=Cc2cc(-c3ccc4c(c3)OCO4)ccc2SCC1 has a melting point of 227 to 229 °C. For CSc1ccc2c(c1)NC(=O)C2, the melting point was 179 to 180 °C. For CCCCCCNC(=O)[C@H](C)C[C@H](O)[C@H](CC1CCCCC1)NC(=O)[C@H](Cc1cscn1)NC(=O)OC(C)(C)C, the melting point was 156 to 158 °C. Compound COc1ccc(OC)c(-c2cccc3c2OC(CN)C3)c1 (stereo not given) has a melting point of 128 to 132 °C. For CCc1cn(C2CC(O)C(CCC(O)C(C)Oc3ccc(Cl)cc3Cl)O2)c(=O)[nH]c1=O (mixture of isomers), the melting point was 108 to 111 °C. Work on COc1ccc(-n2nnnc2C)cc1C=O yielded a melting point of 132 to 134 °C. With CCOc1ccc2c(c1)n(C(C)(C)CC(C)(C)C)c(=O)n2S(=O)(=O)c1ccc([N+](=O)[O-])cc1OC the melting point was 158 °C. CC(CC1c2ccccc2CCN1C)NCC(O)c1ccc(O)cc1 (stereo not given) showed a melting point of 113 to 115 °C. In the case of CCCOc1cc(-c2c(C(=O)OCC)c(CCl)nc3cc(OC)c(OC)cc23)ccc1OC, the melting point is reported as 126 to 128 °C. In the case of O=Cc1c[nH]c2ccc(C(F)(F)F)cc12, the melting point is reported as 242 to 243 °C. Compound CCOC(=O)COc1ccc(Oc2nc(Cl)cc3ccccc23)cc1 has a melting point of 97 °C. Compound O=C(CCCCCCc1ccccc1)Oc1cc(=O)n(-c2ccccc2)c2ncccc12 has a melting point of 139 to 140 °C. Work on CCc1nn(CCO)c(CC)c1Oc1cc(C#N)cc(SC)c1 yielded a melting point of 72 °C. c1cncc(CCc2ccc(C3OCCO3)cc2)c1 gave a melting point of 46 to 47 °C. With O=S(=O)(Cl)c1ccc(-c2ccc(C(F)(F)F)cc2)s1 the melting point was 73 to 75 °C. CCOC(=O)C[C@H]1O[C@H](c2ccc(OCc3ccccc3)cc2OC)c2cc(Cl)ccc2N(CC(C)(C)C)C1=O (relative stereo) showed a melting point of 130 to 131 °C. For Cc1ccc(Oc2ccc(-n3cnnn3)cc2)c(O)c1, the melting point was 129 to 132 °C. Work on Clc1ccc(C2(c3ccccc3)OC2n2ccnc2)c(Cl)c1 (stereo not given) yielded a melting point of 135 to 137 °C. Work on O=c1[nH]c2ccc3c(c2[nH]c1=O)CCCN3 yielded a melting point greater than 285 °C. N#Cc1ccc(-c2ccc(OC[C@H](O)CCc3cccnc3)cc2)cc1 showed a melting point of 135 to 136 °C. In the case of CCOC(=O)c1ccc(OCc2ccc(F)cc2)cc1, the melting point is reported as 60 to 62 °C. CCCc1c(OCc2cccc(-c3nnn[nH]3)c2)ccc(C(C)=O)c1O showed a melting point of 194 to 195 °C. For O=C(O)CCCN1CCc2ccc(S(=O)(=O)Nc3ccc(Cl)cc3)cc2C1, the melting point was 210 °C. CC1=C(/C=C/C(C)=C/C=C/C(C)=C/C(=O)O)C(C)(C)CCC1=O showed a melting point of 184 to 187 °C. CC(=O)OCCCNC(=O)CCC(NC(=O)C=Cc1ccco1)C(=O)NCCCOC(C)=O (stereo not given) showed a melting point of 132 to 134 °C. Work on CC12CCC(=O)C=C1CCC1C2CCC2(C)C(c3cccnc3)=CCC12 (stereo not given) yielded a melting point of 148 to 150 °C. O=C1Nc2ccccc2SC(c2ccccc2)C1CO (stereo not given) gave a melting point of 248 °C. With Cn1nc(C(F)(F)F)c(CS(=O)(=O)C2=NOC(C)(C)C2)c1C#N the melting point was 105 to 108 °C. For O=C(O)C(Cc1ccccc1)Nc1cc(-c2ccc(OCc3ccccc3)nc2)ncn1 (stereo not given), the melting point was 130 to 133 °C. In the case of O=C1CCSc2cc(-c3ccccc3)ccc21, the melting point is reported as 85 to 87 °C. For CC(=O)NCC1=C(N2CCCC2=O)c2cc([N+](=O)[O-])ccc2OC1(C)C, the melting point was 205 °C. CCOC(=O)C1=C(CSCCNC=O)NC(C)=C(C(C)=O)C1c1cccc([N+](=O)[O-])c1 (stereo not given) showed a melting point of 140 to 142 °C. With CC(C)(C)OC(=O)CN(Cc1cccc(Cl)c1)S(=O)(=O)c1ccc2c(Cl)cnc(Cl)c2c1 the melting point was 141 to 143 °C. C[C@H](Oc1ccc(-c2cccc(OCC(N)=O)c2)cc1)[C@H](O)CCc1cccnc1 gave a melting point of 120 to 122 °C. In the case of O=c1[nH]c(=O)n(C2CC(F)C(CO)O2)cc1C(Br)=CI (stereo not given), the melting point is reported as 107 °C. CCOc1cc(Cc2ccccn2)ccc1CCCOc1c(CC(=O)O)cccc1OC showed a melting point of 97.5 to 98.5 °C. For CCCC1=NN(c2cccc(S(=O)(=O)O)c2)C(=O)C1=CNc1ccccc1CC, the melting point was 259 °C. Compound Cc1nnc2n1-c1ccc(Cl)cc1C(c1ccccc1F)=CC2 has a melting point of 223 to 225 °C. For O=C1OC(=O)c2cc3cc(Cl)ccc3cc21, the melting point was 220 °C. COc1ccccc1NC(=O)Nc1nc(Oc2ccc3ccccc3c2)nc(N(CCC(=O)O)Cc2ccc(F)cc2)n1 gave a melting point of 211 to 217 °C. With CCCCc1nc2sc3c(NCc4ccco4)ncnc3c2c2c1COC(C)(C)C2 the melting point was 66.1 to 68.5 °C.

Source: a melting point compilation (Tetko et al.; mined from patent text by program, amines drawn as free bases though some values may be those of a salt)
